# Measured values reported in patent EP1063290A1, “NOVEL DICARBONYLREDUCTASE AND GENE ENCODING THE SAME” (TAISHO PHARMACEUTICAL CO., LTD, priority 1998, dated 1999).
# Read-outs that look alike come from different tables or passages of the source.
# Key:
# [1] = molecular target: protein hDCR1 (Homo sapiens, UniProt Q7Z4W1); assay: Dicarbonyl reductase activity assay: substrate specificity (NAD(P)H oxidation at 340 nm); conditions: against a reference of 100 for diacetyl
# Procedure: (§1) The enzyme activity assay method is not particularly restricted, and it may be based on the activity assay method for mouse carbonyl reductase (CR) (Eur. J. Biochem. 22, 381-387(1995)). The enzyme used here was an expressed recombinant enzyme. • (a) Substrate specificity: In order to determine the substrate specificity, there may be used a hydrocarbon system including various ketone, aldehyde and ester groups, or an aromatic compound.
# The reaction mixture (total: 2.0 ml) comprised an 80 mM potassium phosphate solution (pH 7.0 or 6.0), 0.1 mM NADPH or NADH and a carbonyl substrate or enzyme (50 µl) (10.1 µg or 3.7 µg of hDCR1).
# The oxidation rate for NAD(P)H was measured at 340 nm.
# One unit of enzyme activity was defined as that which catalyzed oxidation of 1 µmol of NAD(P)H in one minute at 25°C.
# [2] = molecular target: protein DCR1 (Mus musculus, UniProt Q91X52); assay: Dicarbonyl reductase activity assay: substrate specificity and rate constants (NAD(P)H oxidation at 340 nm); conditions: for activity (as substrate): Example 5, result in words
# Procedure: as §1
# • (1) This was assayed under the following conditions. The reaction mixture (total: 2.0 ml) comprised an 80 mM potassium phosphate solution (pH 7.0 or 6.0), 0.1 mM NADPH or NADH and a carbonyl substrate or enzyme (50 µl) (10.1 µg or 3.7 µg of glomerin B). The oxidation rate for NAD(P)H was measured at 340 nm.
# [3] = substrate concentration 20 μM, against a reference of 100 for diacetyl
# [4] = substrate concentration 1,000 μM, against a reference of 100 for diacetyl
# [5] = substrate concentration 1,000 μM
# [6] = substrate concentration 5,000 μM, against a reference of 100 for diacetyl
# [7] = substrate concentration 2,000 μM
# [8] = substrate concentration 500 μM, against a reference of 100 for diacetyl
# [9] = substrate concentration 100 μM, against a reference of 100 for diacetyl
# [10] = substrate concentration 5,000 μM
# Sequence of protein hDCR1 (Q7Z4W1 whole entry): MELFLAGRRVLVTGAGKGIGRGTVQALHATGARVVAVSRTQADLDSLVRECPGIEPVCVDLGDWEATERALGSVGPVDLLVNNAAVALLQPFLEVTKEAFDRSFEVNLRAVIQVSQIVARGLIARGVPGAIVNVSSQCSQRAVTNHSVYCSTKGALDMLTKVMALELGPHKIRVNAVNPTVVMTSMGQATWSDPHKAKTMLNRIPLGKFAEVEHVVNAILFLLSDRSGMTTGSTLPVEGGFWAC
# Sequence of protein DCR1 (Q91X52 whole entry): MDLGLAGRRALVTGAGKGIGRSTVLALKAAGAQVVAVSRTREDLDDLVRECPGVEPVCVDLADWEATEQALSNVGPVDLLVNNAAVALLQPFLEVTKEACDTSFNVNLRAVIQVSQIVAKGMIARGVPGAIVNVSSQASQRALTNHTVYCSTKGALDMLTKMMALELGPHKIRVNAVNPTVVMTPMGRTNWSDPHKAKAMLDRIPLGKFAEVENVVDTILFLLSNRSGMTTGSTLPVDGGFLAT
compound,measurement,setting,value
C[C@]12CCC(=O)C[C@@H]1CC[C@@H]1[C@@H]2CC[C@]2(C)[C@@H](O)CC[C@@H]12 [5α-DHT],RA (%) relative activity,[1]; substrate concentration 50 μM,0%
C[C@]12C[C@H](O)[C@H]3[C@@H](CCC4=CC(=O)CC[C@@]43C)[C@@H]1CC[C@@H]2C(=O)C=O [Corticosterone-21-al],RA (%) relative activity,[2]; [3],0.0%
CC(=O)c1ccc(S(=O)(=O)NC(=O)NC2CCCCC2)cc1 [Acetohexamide],RA (%) relative activity,[2]; [4],0%
O=Cc1cccc([N+](=O)[O-])c1 [3-Nitrobenzaldehyde],RA (%) relative activity,"[2]; substrate concentration 3,000 μM, against a reference of 100 for diacetyl",3.3%
O=C(c1ccccc1)c1ccncc1 [4-Benzoylpyridine],RA (%) relative activity,[1]; [5],39%
same,RA (%) relative activity,[2]; [4],7%
O=CCO [Glycolaldehyde],RA (%) relative activity,[2]; [6],0.9%
O=C(O)CCC(=O)C(=O)O [α-Ketoglutaric acid],RA (%) relative activity,[2]; [4],0%
C[C@]12C[C@H](O)[C@H]3[C@@H](CCC4=CC(=O)CC[C@@]43C)[C@@H]1CC[C@@H]2C(=O)CO [Corticosterone],RA (%) relative activity,[1]; substrate concentration 50 μM,0%
OC1C=CCCC1 (centres unmarked) [2-cyclohexen-1-ol],activity (as substrate),[2],no activity
O=C[C@H](O)[C@@H](O)[C@H](O)[C@H](O)CO [D-Glucose],RA (%) relative activity,"[2]; substrate concentration 200,000 μM, against a reference of 100 for diacetyl",0%
C=CCN1CC[C@]23c4c5ccc(O)c4O[C@H]2C(=O)CC[C@@]3(O)[C@H]1C5 [Naloxone],RA (%) relative activity,[2]; [4],0%
O=C(O)C(=O)[C@@H](O)[C@H](O)[C@@H](O)CO [2-Ketogulonate],RA (%) relative activity,[2]; [4],0%
"CC(=O)[C@H]1CC[C@H]2[C@@H]3CC[C@@H]4CC(=O)CC[C@]4(C)[C@H]3CC[C@]12C [5β-Pregnane-3,20-dione]",RA (%) relative activity,[2]; [3],0.0%
CC(=O)c1ccc([N+](=O)[O-])cc1 [4-Nitroacetophenone],RA (%) relative activity,[1]; [5],0%
same,activity (as substrate),[2],no activity
same,RA (%) relative activity,[2]; [4],0%
"O=C1CCCCC1=O [1,2-Cyclohexanedione]",RA (%) relative activity,[1]; [5],27%
same,RA (%) relative activity,[2]; [4],10.9%
"O=C1C=Cc2ccccc2C1=O [1,2-Naphtoquinone]",RA (%) relative activity,[2]; [3],47%
"CC(=O)CCC(C)=O [2,5-Hexanedione]",RA (%) relative activity,[2]; [4],0%
O=CC(=O)c1ccccc1 [Phenylglyoxal],RA (%) relative activity,[1]; [5],35%
same,RA (%) relative activity,[2]; [4],3.9%
C[C@@H](O)C=O [D-Lactoaldehyde],RA (%) relative activity,[2]; [4],0.6%
"C[C@]12CCC(=O)C[C@H]1CC[C@@H]1[C@@H]2CC[C@]2(C)C(=O)CC[C@@H]12 [5β-Androstane-3,17-dione]",RA (%) relative activity,[2],0.0%
O=CC(=O)C[C@H](O)[C@H](O)CO [3-Deoxyglucosone],RA (%) relative activity,[1]; [7],5%
same,RA (%) relative activity,"[2]; substrate concentration 2,000 μM, against a reference of 100 for diacetyl",0.4%
CCOC(=O)CC(C)=O [Ethyl acetoacetate],RA (%) relative activity,[2]; [4],0%
O=Cc1ccncc1 [Pyridine-4-aldehyde],RA (%) relative activity,[1]; [5],27%
same,RA (%) relative activity,[2]; [6],13.7%
CCCCC[C@H](O)/C=C/[C@H]1[C@H](O)CC(=O)[C@@H]1C/C=C\CCCC(=O)O [PGE2],RA (%) relative activity,[2]; [4],0.0%
CC(=O)C=Cc1ccccc1 [Benzalacetone],RA (%) relative activity,[2]; [8],0%
CC(=O)[C@@]1(O)CC[C@H]2[C@@H]3CCC4=CC(=O)CC[C@]4(C)[C@H]3CC[C@@]21C [17α-hydroxyprogesterone],RA (%) relative activity,[1]; substrate concentration 50 μM,0%
same,RA (%) relative activity,[2]; [3],0.0%
CC(=O)C(=O)O [Pyruvic acid],RA (%) relative activity,[2]; [6],0%
O=C(O)C(=O)Cc1ccccc1 [Phenylpyruvic acid],RA (%) relative activity,[2]; [4],0.5%
"CC1=CC(=O)c2ccccc2C1=O [Menadione (Vitamin K3), Menadione]",RA (%) relative activity,[1]; substrate concentration 100 μM,0%
same,activity (as substrate),[2],no activity
same,RA (%) relative activity,[2]; [9],0.1%
CCOC(=O)C(C)=O [Pyruvic acid ethyl ester],RA (%) relative activity,[1]; [5],33%
same,RA (%) relative activity,[2]; [4],35.2%
O=C[C@H](O)[C@@H](O)[C@H](O)[C@H](O)C(=O)O [D-Glucuronate],RA (%) relative activity,[2]; [4],0%
Indolecarboaldehyde,RA (%) relative activity,[2]; [4],0%
Phenyl-2-butanone,RA (%) relative activity,[2]; [4],0.2%
O[C@H]1CCc2ccccc21 [S-indan-1-ol],activity (as substrate),[2],no activity
C[C@]12CCC(=O)C[C@H]1CC[C@@H]1[C@@H]2C(=O)C[C@@]2(C)[C@H]1CC[C@]2(O)C(=O)CO [5β-dihydrocortisone],RA (%) relative activity,[1]; substrate concentration 20 μM,0%
"C[C@]12CCC(=O)C[C@@H]1CC[C@@H]1[C@@H]2CC[C@]2(C)C(=O)CC[C@@H]12 [5α-Androstane-3,17-dione]",RA (%) relative activity,[1]; substrate concentration 50 μM,0%
same,RA (%) relative activity,[2],0.0%
"O=C1CCC(=O)CC1 [1,4-Cyclohexanedione]",RA (%) relative activity,[2]; [4],0%
COC(=O)C(C)=O [Pyruvic acid methyl ester],RA (%) relative activity,[1]; [5],46%
same,RA (%) relative activity,[2]; [4],23.3%
"O=C1c2ccccc2C(=O)C1c1ccccc1 [1-Phenyl-1,3-indanedione]",RA (%) relative activity,"[2]; substrate concentration 400 μM, against a reference of 100 for diacetyl",0.6%
COC(=O)CCC(=O)C(=O)OC [Dimethyl-2-oxoglutarate],RA (%) relative activity,[1]; [7],63%
C[C@]12CC[C@@H](O)C[C@H]1CC[C@@H]1[C@@H]2[C@@H](O)C[C@]2(C)[C@@H](C(=O)CO)CC[C@@H]12 [Tetrahydrocorticosterone],RA (%) relative activity,[2],0.0%
O=C1C=CCCC1 [2-Cyclohexen-1-one],RA (%) relative activity,[2]; [4],1.3%
CCCCCCCCC=O [1-Nonanal],RA (%) relative activity,"[2]; substrate concentration 50 μM, against a reference of 100 for diacetyl",0.005%
O=CC(O)CO (racemic) [DL-Glyceraldehyde],RA (%) relative activity,[1]; [10],25%
same,RA (%) relative activity,[2]; [4],10.4%
same,RA (%) relative activity,[2]; [6],40%
CC(=O)CO [Acetol],RA (%) relative activity,[2]; [4],0.8%
COc1cccc2c1C(=O)c1c(O)c3c(c(O)c1C2=O)C[C@@](O)(C(C)=O)C[C@@H]3O[C@H]1C[C@H](N)[C@H](O)[C@H](C)O1 [Daunorubicin],RA (%) relative activity,[1]; substrate concentration 500 μM,0%
same,RA (%) relative activity,[2]; [8],1.1%
CCC(=O)c1ccccc1 [Propiophenone],RA (%) relative activity,[2]; [4],0%
CC(=O)C=O [Methylglyoxal],RA (%) relative activity,[1]; [10],20%
same,RA (%) relative activity,[2]; [4],2.3%
same,RA (%) relative activity,[2]; [6],7.9%
O=C(C(=O)c1ccccc1)c1ccccc1 [Benzil],RA (%) relative activity,[2]; [9],0%
"CC(=O)CC(C)=O [2,4-Pentanedione]",RA (%) relative activity,[1]; [5],0%
same,RA (%) relative activity,[2]; [4],0%
CCC(C)=O [2-Butanone],RA (%) relative activity,[2],0%
CCC=O [1-Propanal],RA (%) relative activity,[2]; [6],0.5%
CC=O [Acetaldehyde],RA (%) relative activity,[2]; [6],1.8%
COC(=O)CC(C)=O [Methyl acetoacetate],RA (%) relative activity,[2]; [4],0.2%
O=Cc1cccnc1 [Pyridine-3-aldehyde],RA (%) relative activity,[1]; [5],27%
same,RA (%) relative activity,[2]; [4],4%
O=Cc1ccccc1[N+](=O)[O-] [2-Nitrobenzaldehyde],RA (%) relative activity,[1]; [5],99%
same,RA (%) relative activity,"[2]; substrate concentration 1,500 μM, against a reference of 100 for diacetyl",3.9%
O=C1O[C@H]([C@@H](O)CO)C(=O)C1=O [Dehydroascorbic acid],RA (%) relative activity,[2]; [8],0%
O=CC=O [Glyoxal],RA (%) relative activity,[2]; [6],0%
C[C@]12CCC(=O)C=C1CC[C@@H]1[C@@H]2[C@@H](O)C[C@@]2(C)[C@H]1CC[C@]2(O)C(=O)C=O [Cortisol-21-al],RA (%) relative activity,[2]; [3],0.0%
CC(=O)C(C)O (centres unmarked) [Acetoin],RA (%) relative activity,[1]; [10],13%
same,RA (%) relative activity,[2]; [6],7.4%
CC12CCC(C(=O)C1=O)C2(C)C (centres unmarked) [Camphorquinone],RA (%) relative activity,[1]; substrate concentration 500 μM,23%
same,RA (%) relative activity,[2]; [8],6%
O=Cc1ccc([N+](=O)[O-])cc1 [4-Nitrobenzaldehyde],RA (%) relative activity,[1]; [5],69%
same,RA (%) relative activity,[2]; [4],3.3%
